Measurements published in publication PMC11061835, “Elucidating the Mechanism of Metabolism of Cannabichromene by Human Cytochrome P450s” (Journal of Natural Products, 2024).

Key:
[1] = system: BV2 microglial cells, stimulated with lipopolysaccharide (LPS); test: Nitric oxide determination (Griess assay) in LPS-stimulated BV2 cells; format: cell-based, mouse; settings: for effect on NO release/production: 0.1, 1.0, 2.5, 5.0 μM, vs cells treated with LPS only
Procedure: (§1) BV2 cells were a gift from Dr. Bob McCusker, University of Illinois. They were cultured and maintained at 37 °C in a humidified atmosphere of 95% air and 5% CO2 in high-glucose Dulbecco’s modified Eagle’s (DMEM) medium (Cat No. 10-013-CV, Corning Life Sciences), supplemented with 5% heat-inactivated fetal bovine serum (FBS), streptomycin (100 μg/mL), and penicillin (100 units/mL). Stocks of all the minor cannabinoids were made in ethanol and stored at −80 °C and diluted as required before cell treatment. A final concentration of ethanol was maintained at 0.1% in the cell culture experiments.
First, cell viability of BV2 cells was assessed after treatment with cannabinoids, at various concentrations (0.1, 1.0, 2.5, 5.0 μM), utilizing Cayman’s MTT assay. […] Once viability was determined, we measured the production of pro-inflammatory markers such as nitric oxide (NO), interleukin 6 (IL-6), tumor necrosis factor alpha (TNFα), and arginase 1 (Arg1) after BV2 cells were treated with minor cannabinoids and then stimulated with lipopolysaccharide (LPS) to evoke an inflammatory response.
(§2) BV-2 cells were plated at a density of 50 000 cells/well in a 24-well plate at 37 °C under controlled conditions. Cells were pretreated with the minor cannabinoids at various concentrations (0.1, 1.0, 2.5, 5.0 μM) for 4 h and then stimulated with LPS for 24 h. The culture medium was removed and saved for the determination of nitric oxide production through Cayman’s Griess assay. IL-6, TNFα, and Arginase 1 production was also determined utilizing collected medium. For the Greiss assay, in a 96-well plate, 100 μL of culture medium was used, and 50 μL of both Greiss reagent-1 and Greiss reagent-2 was added and incubated for 10 min. The absorbance was measured at 540 nm using a plate reader (SpectraMax iD5). The quantification was done using a calibration curve that was generated using the sodium nitrite standard obtained from Cayman Chemicals.

[2] = system: BV2 microglial cells, stimulated with lipopolysaccharide (LPS); test: IL-6 ELISA in LPS-stimulated BV2 cells; format: cell-based, mouse; settings: for effect on IL-6 levels: 0.1, 1.0, 2.5, 5.0 μM, LPS-stimulated
Procedure: as §1, §2
(§3) BV-2 cells were pretreated with the minor cannabinoids as described previously for 4 h in serum media (reduced to 5% FBS). Cells were stimulated with LPS (25 ng/mL in growth media) and allowed to incubate for 24 h. The culture medium was collected, and the concentrations of IL-6 (Cayman Chemicals), TNFα (ThermoFisher Scientific), and arginase 1 (ThermoFisher Scientific) cytokine expression were determined using specific monoclonal antibodies by ELISA kits as per manufacturer’s instructions.

[3] = system: BV2 microglial cells, stimulated with lipopolysaccharide (LPS); test: TNFα ELISA in LPS-stimulated BV2 cells; format: cell-based, mouse; settings: 0.1, 1.0, 2.5, 5.0 μM
Procedure: as §1, §2, §3

TRPV1 = system: TRPV1; parameters: method as in PMID 30697147; settings: read-out: agonism toward TRPV1; cited from earlier work
TRPV2 = system: TRPV2; parameters: method as in PMID 30697147; settings: read-out: agonism toward TRPV2; cited from earlier work
[4] = In vivo metabolism of CBC, mouse blood plasma (LC-MS/MS); parameters: species or system mice; settings: mice, CBC 20 mg/kg IV or IP, plasma at 0.5 and 2 h
Procedure: CBC was dissolved in ethanol, and an aliquot was then mixed with Tween-80. Ethanol was removed by evaporation. The mixture was then reconstituted with PBS to a 6% final concentration of Tween-80. C 57BL/6J female mice, age 8–10 weeks, were injected with 20 mg/kg CBC or vehicle intravenously (IV, n = 3) via the tail vein or intraperitoneally (IP, n = 3). Blood samples were collected terminally by cardiac puncture into heparin-coated syringes at 0.5 and 2 h after CBC treatment and transferred into tubes. The tubes were then centrifuged, and plasma samples were removed and stored at −80 °C.
200 μL of blood plasma from each sample was taken into a glass tube, and 500 μL of extraction solvent (hexane:ethyl acetate 80:20 v/v) was added. The remaining extraction steps are similar to those used for CBC metabolite extraction from CYPs as mentioned earlier.
Samples were analyzed with the 5500 QTRAP LC/MS/MS system (Sciex, Framingham, MA) in the Metabolomics Lab of Roy J. Carver Biotechnology Center, University of Illinois at Urbana–Champaign. Software Analyst 1.7.1 was used for data acquisition and analysis. The 1200 series HPLC system (Agilent Technologies, Santa Clara, CA) includes a degasser, an autosampler, and a binary pump. The LC separation was performed on a Phenomenex Gemini C6-phenyl column (2 × 100 mm, 3 μm) with mobile phase A (0.1% formic acid in water) and mobile phase B (0.1% formic acid in acetonitrile). The flow rate was 0.2 mL/min. The linear gradient was as follows: 0–2 min, 95% A; 10 min, 50% A; 20–25 min, 0% A; 25.1–31 min, 95% A. The autosampler was set at 10 °C. The injection volume was 5 μL. Mass spectra were acquired under positive electrospray ionization (ESI) with the ion spray voltage of +5000 V. The source temperature was 400 °C. The curtain gas, ion source gas 1, and ion source gas 2 were 325, 65, and 55 psi, respectively. Multiple reaction monitoring (MRM) was used for quantitation: CBC m/z 315.1 → m/z 135.0; 1-acetoxy-6′,7′-dihydroxy-CBC (JM-I-73) m/z 349.1→ m/z 193.0; 1″-hydroxy-CBC (JM-I-66) m/z 331.1→ m/z 275.1; 6′,7′-epoxy-CBC (JM-I-27) m/z 331.1→ m/z 193.0; 7′,10′-ene-6′-hydroxy-CBC (JM-I-30) m/z 331.1→ m/z 193.0; 8′-hydroxy-CBC (JM-I-32) […]→ m/z 77.0. Internal standard EET-EA-d11 was monitored at m/z 375.2→ m/z 357.1.

[5] = system: recombinant CYPs: CYP2J2, CYP2C8, CYP2C9, CYP2D6, and CYP3A4; test: CBC metabolism by recombinant CYPs (all five); format: in vitro ADME, human; settings: lipid-constituted system with CPR, NADPH
Procedure: (§4) To study the kinetics of CBC metabolism, concentration dependent metabolism of CBC was carried out in the presence of various CYPs using the following procedure. CYP2J2, CYP2C8, CYP2D6, CYP2C9, and CYP3A4 (final concentration 0.5 μM) were initially dissolved in lipid containing POPC:POPS (8:2 v/v) followed by addition of CPR (final concentration 0.6 μM) in 0.1 M potassium phosphate buffer (pH 7.4). CBC (5–80 μM) was added and incubated at 37 °C for 10 min. The reaction was triggered by NADPH and extracted using the exact sample protocol as mentioned in the HLM section.
(§5) Samples were analyzed with the 5500 QTRAP LC/MS/MS system (Sciex, Framingham, MA) in the Metabolomics Lab of Roy J. Carver Biotechnology Center, University of Illinois at Urbana–Champaign. Software Analyst 1.7.1 was used for data acquisition and analysis. The 1200 series HPLC system (Agilent Technologies, Santa Clara, CA) includes a degasser, an autosampler, and a binary pump. […] Multiple reaction monitoring (MRM) was used for quantitation: CBC m/z 315.1 → m/z 135.0; 1-acetoxy-6′,7′-dihydroxy-CBC (JM-I-73) m/z 349.1→ m/z 193.0; 1″-hydroxy-CBC (JM-I-66) m/z 331.1→ m/z 275.1; 6′,7′-epoxy-CBC (JM-I-27) m/z 331.1→ m/z 193.0; 7′,10′-ene-6′-hydroxy-CBC (JM-I-30) m/z 331.1→ m/z 193.0; 8′-hydroxy-CBC (JM-I-32) […]→ m/z 77.0. Internal standard EET-EA-d11 was monitored at m/z 375.2→ m/z 357.1.

[6] = system: BV2 microglial cells, stimulated with lipopolysaccharide (LPS); test: Arginase 1 ELISA in LPS-stimulated BV2 cells; format: cell-based, mouse; settings: 0.1, 1.0, 2.5, 5.0 μM
Procedure: as §1
as §2, with “For the Greiss assay, in a 96-well plate, 100 μL of culture medium was used, and 50 μL of both Greiss reagent-1 and Greiss reagent-2 was added and incubated for 10 min.” left out, “Chemicals. […]” for “Chemicals.”

CYP2D6 = CYP2D6 (Homo sapiens, UniProt P10635); test: CBC metabolism by CYP2D6; format: in vitro ADME; parameters: His-tag; made in house; host or cells: E. coli DH-5α with pTGro7 plasmid (CYP)
Procedure: as §4, §5

CYP3A4 = CYP3A4 (Homo sapiens, UniProt P08684); test: CBC metabolism by CYP3A4; format: in vitro ADME; parameters: His-tag; made in house; host or cells: E. coli DH-5α with pTGro7 plasmid (CYP)
Procedure: as §4, §5

Sequence of CYP3A4 (P08684 whole entry): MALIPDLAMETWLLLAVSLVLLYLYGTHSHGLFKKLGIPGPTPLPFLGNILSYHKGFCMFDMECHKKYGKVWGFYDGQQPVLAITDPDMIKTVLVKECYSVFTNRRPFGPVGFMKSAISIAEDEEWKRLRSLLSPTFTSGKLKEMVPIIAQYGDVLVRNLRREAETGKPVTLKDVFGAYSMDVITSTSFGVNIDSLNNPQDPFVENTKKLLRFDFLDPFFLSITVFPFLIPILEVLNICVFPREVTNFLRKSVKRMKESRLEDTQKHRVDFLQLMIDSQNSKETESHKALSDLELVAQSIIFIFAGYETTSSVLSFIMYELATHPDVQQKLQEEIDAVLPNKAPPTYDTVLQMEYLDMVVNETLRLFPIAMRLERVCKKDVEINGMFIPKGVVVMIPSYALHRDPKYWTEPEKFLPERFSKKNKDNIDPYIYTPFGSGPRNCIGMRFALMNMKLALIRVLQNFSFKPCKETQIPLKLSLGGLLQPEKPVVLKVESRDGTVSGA
Sequence of CYP3A4 (P16435 whole entry partner): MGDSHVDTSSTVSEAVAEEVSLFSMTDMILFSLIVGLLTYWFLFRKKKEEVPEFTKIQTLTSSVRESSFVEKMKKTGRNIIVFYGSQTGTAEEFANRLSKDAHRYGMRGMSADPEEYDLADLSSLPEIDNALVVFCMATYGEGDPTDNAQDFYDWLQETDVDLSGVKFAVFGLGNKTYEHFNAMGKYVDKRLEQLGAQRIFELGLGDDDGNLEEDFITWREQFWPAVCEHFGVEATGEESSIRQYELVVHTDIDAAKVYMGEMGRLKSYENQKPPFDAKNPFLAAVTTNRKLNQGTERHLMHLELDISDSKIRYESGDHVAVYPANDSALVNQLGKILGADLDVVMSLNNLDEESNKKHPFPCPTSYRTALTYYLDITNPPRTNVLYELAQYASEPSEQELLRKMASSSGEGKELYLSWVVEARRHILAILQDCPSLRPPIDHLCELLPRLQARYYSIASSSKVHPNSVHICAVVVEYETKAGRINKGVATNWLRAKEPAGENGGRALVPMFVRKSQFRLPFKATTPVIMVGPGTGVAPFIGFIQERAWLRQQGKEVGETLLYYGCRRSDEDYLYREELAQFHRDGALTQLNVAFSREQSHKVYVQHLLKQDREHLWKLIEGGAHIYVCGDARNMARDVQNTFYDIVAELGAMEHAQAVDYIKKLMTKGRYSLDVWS
Sequence of CYP2D6 (P10635 whole entry): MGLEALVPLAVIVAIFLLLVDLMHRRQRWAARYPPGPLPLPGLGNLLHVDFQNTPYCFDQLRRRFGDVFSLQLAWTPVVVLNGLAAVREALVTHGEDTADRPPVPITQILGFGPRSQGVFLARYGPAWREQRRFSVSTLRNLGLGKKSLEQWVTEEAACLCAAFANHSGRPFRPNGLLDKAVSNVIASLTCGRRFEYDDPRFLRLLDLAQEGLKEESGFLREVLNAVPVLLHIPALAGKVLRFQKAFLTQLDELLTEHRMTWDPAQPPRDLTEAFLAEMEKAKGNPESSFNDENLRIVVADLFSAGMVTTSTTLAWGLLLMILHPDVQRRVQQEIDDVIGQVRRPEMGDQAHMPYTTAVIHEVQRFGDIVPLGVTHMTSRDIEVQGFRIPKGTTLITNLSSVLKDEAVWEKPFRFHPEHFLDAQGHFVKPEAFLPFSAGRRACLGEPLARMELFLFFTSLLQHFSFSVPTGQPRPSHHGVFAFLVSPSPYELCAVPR
Sequence of CYP2D6 (P16435 whole entry partner): as the sequence (P16435 whole entry partner) above

| SMILES | effect on NO release/production [1] | effect on IL-6 levels [2] | effect on TNFα production [3] | EC50 (TRPV1) [µM] | EC50 (TRPV2) [µM] | detection as product of CBC metabolism in mouse plasma [4] | effect on Arg-1 production [6] | formation as CBC metabolite (CYP3A4) | also measured |
| --- | --- | --- | --- | --- | --- | --- | --- | --- | --- |
| C=C(C)C(O)CCC1(C)C=Cc2c(O)cc(CCCCC)cc2O1 (centres unmarked) [7′,10′-ene-6′-hydroxy-CBC] | concentration-dependent reduction | Concentration dependent reduction | Concentration dependent reduction | – | – | – | – | – | – |
| CCCCCc1cc(O)c(C/C=C(\C)CCC=C(C)C)c(O)c1 [CBG, cannabigerol] | – | – | – | ~33 | ~73 | – | – | – | – |
| CCCCCc1cc(O)c2c(c1)OC(C)(CCC(O)C(C)(C)O)C=C2 (centres unmarked) [6′,7′-dihydroxy-CBC] | concentration-dependent reduction | Concentration dependent reduction | Concentration dependent reduction | – | – | detected | – | – | reduction of NO level ([1]; 5 μM, LPS-stimulated BV2 cells): ~50%; reduction of IL-6 level ([2]; 5 μM, LPS-stimulated BV2 cells): ~50%; detection as CBC metabolite in the presence of recombinant CYPs [5]: not detected |
| CCCCC(O)c1cc(O)c2c(c1)OC(C)(CCC=C(C)C)C=C2 (centres unmarked) [1″-hydroxy-CBC] | – | Concentration dependent reduction | Concentration dependent reduction | – | – | not detected | increases in a concentration dependent manner | not detected | detection as CBC metabolite (CYP2D6): not detected |
| C=C(C)[C@@H]1CCC(C)=C[C@H]1c1c(O)cc(CCCCC)cc1O [CBD, cannabidiol] | – | – | – | ~40 | ~40 | – | – | – | – |
| CCCCCc1cc(O)c2c(c1)OC(C)(CCC1OC1(C)C)C=C2 (centres unmarked) [6′,7′-epoxy-CBC] | – | – | – | – | – | detected | increases in a concentration dependent manner | exclusively produces | – |
